Assay results published in article PMC10745882, “Investigation of Drug-Interaction Potential for Arthritis Dietary Supplements: Chondroitin Sulfate, Glucosamine, and Methylsulfonylmethane” (Molecules, 2023).

Assays:
CYP2D6 [1] = molecular target: T1, CYP2D6 (Homo sapiens, UniProt P10635); test: CYP inhibition assay in human liver microsomes (LC-MS/MS cocktail), dextromethorphan to dextrorphan; type: in vitro ADME
T1 construct: Pooled human liver microsomes were purchased from BD Gentest; tissue BD Gentest; host or cells: pooled human liver microsomes
T1 sequence (P10635 whole entry): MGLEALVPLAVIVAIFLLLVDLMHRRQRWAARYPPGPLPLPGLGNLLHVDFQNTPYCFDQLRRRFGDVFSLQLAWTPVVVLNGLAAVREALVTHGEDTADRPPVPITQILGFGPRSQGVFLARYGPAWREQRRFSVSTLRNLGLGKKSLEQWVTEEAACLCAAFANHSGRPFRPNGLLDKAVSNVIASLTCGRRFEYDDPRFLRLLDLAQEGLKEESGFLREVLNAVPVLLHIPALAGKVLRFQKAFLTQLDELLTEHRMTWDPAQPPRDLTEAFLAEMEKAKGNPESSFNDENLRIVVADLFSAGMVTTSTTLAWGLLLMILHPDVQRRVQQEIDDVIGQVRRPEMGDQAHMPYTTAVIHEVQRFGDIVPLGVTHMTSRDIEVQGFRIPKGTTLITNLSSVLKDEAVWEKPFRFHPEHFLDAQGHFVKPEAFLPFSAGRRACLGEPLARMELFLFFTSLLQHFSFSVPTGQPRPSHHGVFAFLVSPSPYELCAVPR
Protocol: (§1) For the experimental method, the reference method was used. Briefly, incubation mixtures were composed of 0.5 mg/mL human liver microsomes; varying concentrations of CS in DW (0.1, 0.3, 1, 3, 10, 30, 100, and 200 µM) or MSM in DW (0.1, 0.3, 1, 3, 10, 30, 100, 300, and 1000 µM) or GCS in DMSO (0.1, 0.3, 1, 3, 10, 30, 100, 300, and 1000 µM); a substrate mixture in DMSO (40 µM phenacetin for CYP1A2; 2.5 µM coumarin for CYP2A6; 80 µM bupropion for CYP2B6; 10 µM diclofenac for CYP2C9; 80 µM [±]-mephenytoin for CYP2C19; 5 µM dextromethorphan for CYP2D6; 2.5 µM midazolam and 30 µM testosterone for CYP3A4); and an NADPH generating system (NGS; 0.1 M glucose-6-phosphate, 10 mg/mL β-NADP^+, and 1 U/mL glucose-6-phosphate dehydrogenase) in a total volume of 200 µL potassium phosphate buffer (0.1 M, pH 7.4). The reaction mixture, excluding NGS, underwent pre-incubation at 37 °C for 5 min, followed by further incubation with NGS for 30 min in a water bath. Well-established selective CYP inhibitors were employed as positive controls (40 µM ketoconazole for CYP3A4, 50 µM furafyllin for CYP1A2, 10 µM quinidine for CYP2D6, 125 µM ticlopidine for CYP2C19 and CYP2B6, 10 µM 8-methoxsalen for CYP2A6, and 10 µM sulfaphenazole for CYP2C9). Post incubation, the reaction was halted by adding 50 µL ice-cold 1% formic acid acetonitrile. After centrifugation at 13,200 rpm for 5 min, the supernatant was collected from the sample and subjected to analysis via an LC-MS/MS system. All experiments were performed in triplicate.
(§2) For the experimental method, the reference method was used. The LC-MS/MS system utilized in this study consisted of an Agilent 1260 binary pump HPLC system coupled with the Agilent 6460 Triple Quadrupole mass spectrometer (Agilent Technologies, Santa Clara, CA, USA), featuring an electrospray ionization source. Chromatographic separation was achieved using a Fortis C8 column (2.1 × 100 mm, 5.0 µm; Fortis Technologies Ltd., Neston, UK). The HPLC mobile phases comprised (A) 0.1% formic acid and (B) 0.1% formic acid in 90% acetonitrile. A gradient elution method was employed with an initial solvent B concentration of 15% and a flow rate of 0.25 mL/min. […] The total run time was 11.0 min, and the injection volume was 5 µL. Mass detection was conducted in the positive ion mode using multiple reaction monitoring (MRM). Specific MRM transitions for each analyte are detailed in Table S4.

[2] = set-up: method as in PMID 16942821, PMID 37489348, PMID 31331587; conditions: typical doses as monotherapy; cited from earlier work
CYP2C19 = molecular target: T2, CYP2C19 (Homo sapiens, UniProt P33261); test: CYP inhibition assay in human liver microsomes (LC-MS/MS cocktail), mephenytoin to 4-OH-mephenytoin; type: in vitro ADME
T2 construct: Pooled human liver microsomes were purchased from BD Gentest; tissue BD Gentest; host or cells: pooled human liver microsomes
T2 sequence (P33261 whole entry): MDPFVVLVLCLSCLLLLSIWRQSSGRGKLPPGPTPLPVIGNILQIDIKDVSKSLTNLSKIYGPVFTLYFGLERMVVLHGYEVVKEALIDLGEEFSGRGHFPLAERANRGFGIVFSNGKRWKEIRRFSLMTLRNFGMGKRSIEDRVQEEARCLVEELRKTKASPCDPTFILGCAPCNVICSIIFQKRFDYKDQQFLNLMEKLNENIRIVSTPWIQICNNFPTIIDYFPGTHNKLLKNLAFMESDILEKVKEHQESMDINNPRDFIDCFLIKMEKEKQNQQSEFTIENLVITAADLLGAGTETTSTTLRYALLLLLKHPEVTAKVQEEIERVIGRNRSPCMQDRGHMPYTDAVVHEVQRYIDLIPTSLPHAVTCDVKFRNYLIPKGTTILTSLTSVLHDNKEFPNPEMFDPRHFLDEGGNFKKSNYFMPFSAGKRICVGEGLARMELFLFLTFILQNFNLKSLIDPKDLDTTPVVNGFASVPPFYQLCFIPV
Protocol: as §1, §2

CYP2A6 = molecular target: T3, CYP2A6 (Homo sapiens, UniProt P11509); test: CYP inhibition assay in human liver microsomes (LC-MS/MS cocktail), coumarin to 7-OH-coumarin; type: in vitro ADME
T3 construct: Pooled human liver microsomes were purchased from BD Gentest; tissue BD Gentest; host or cells: pooled human liver microsomes
T3 sequence (P11509 1-494): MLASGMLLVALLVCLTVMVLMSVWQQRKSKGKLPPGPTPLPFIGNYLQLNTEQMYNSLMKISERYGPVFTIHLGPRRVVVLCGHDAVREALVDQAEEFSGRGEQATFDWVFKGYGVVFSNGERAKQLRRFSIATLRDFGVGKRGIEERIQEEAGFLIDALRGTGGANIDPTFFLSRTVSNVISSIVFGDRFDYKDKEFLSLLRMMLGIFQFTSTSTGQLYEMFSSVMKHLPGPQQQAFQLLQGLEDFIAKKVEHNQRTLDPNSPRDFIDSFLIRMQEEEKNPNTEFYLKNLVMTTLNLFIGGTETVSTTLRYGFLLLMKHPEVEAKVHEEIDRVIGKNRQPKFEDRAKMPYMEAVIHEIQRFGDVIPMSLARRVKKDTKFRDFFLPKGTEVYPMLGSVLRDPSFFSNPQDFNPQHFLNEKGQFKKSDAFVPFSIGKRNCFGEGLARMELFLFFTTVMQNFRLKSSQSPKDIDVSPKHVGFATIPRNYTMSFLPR
Protocol: as §1, §2

CYP2C9 = molecular target: T4, CYP2C9 (Homo sapiens, UniProt P11712); test: CYP inhibition assay in human liver microsomes (LC-MS/MS cocktail), diclofenac to 4-OH-diclofenac; type: in vitro ADME
T4 construct: Pooled human liver microsomes were purchased from BD Gentest; tissue BD Gentest; host or cells: pooled human liver microsomes
T4 sequence (P11712 whole entry): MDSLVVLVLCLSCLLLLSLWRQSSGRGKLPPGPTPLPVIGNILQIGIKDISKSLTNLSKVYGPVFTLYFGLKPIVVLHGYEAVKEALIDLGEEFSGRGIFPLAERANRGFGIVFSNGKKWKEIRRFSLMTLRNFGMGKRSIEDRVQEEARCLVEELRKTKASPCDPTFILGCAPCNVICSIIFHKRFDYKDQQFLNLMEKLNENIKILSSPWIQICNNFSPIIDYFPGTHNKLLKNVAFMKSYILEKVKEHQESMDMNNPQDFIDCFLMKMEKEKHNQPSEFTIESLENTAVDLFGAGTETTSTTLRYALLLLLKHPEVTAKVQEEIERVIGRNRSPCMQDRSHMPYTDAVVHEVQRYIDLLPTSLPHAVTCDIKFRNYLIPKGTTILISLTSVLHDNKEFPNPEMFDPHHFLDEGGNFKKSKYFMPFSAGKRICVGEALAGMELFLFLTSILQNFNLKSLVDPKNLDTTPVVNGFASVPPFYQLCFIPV
Protocol: as §1, §2

CYP3A4(T) = molecular target: T5, CYP3A4(T) (Homo sapiens, UniProt P08684); test: CYP inhibition assay in human liver microsomes (LC-MS/MS cocktail), testosterone to 6-β-OH-Testosterone; type: in vitro ADME
T5 construct: Pooled human liver microsomes were purchased from BD Gentest; tissue BD Gentest; host or cells: pooled human liver microsomes
T5 sequence (P08684 whole entry): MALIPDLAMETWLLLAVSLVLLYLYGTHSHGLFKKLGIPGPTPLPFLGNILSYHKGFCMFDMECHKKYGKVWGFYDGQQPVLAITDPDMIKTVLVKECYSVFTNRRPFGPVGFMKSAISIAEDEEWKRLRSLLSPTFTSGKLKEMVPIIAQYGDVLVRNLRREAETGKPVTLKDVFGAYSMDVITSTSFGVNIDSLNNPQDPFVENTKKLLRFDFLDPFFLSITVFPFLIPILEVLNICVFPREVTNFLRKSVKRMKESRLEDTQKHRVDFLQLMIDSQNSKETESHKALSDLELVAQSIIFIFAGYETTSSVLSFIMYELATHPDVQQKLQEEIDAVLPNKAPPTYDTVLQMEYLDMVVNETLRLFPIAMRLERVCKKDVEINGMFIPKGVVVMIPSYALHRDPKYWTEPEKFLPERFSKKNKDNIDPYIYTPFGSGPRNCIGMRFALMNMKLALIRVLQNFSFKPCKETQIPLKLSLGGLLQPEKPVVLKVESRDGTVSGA
Protocol: as §1, §2

[3] = cited from earlier work
CYP2D6 [4] = molecular target: T1, CYP2D6; set-up: method as in PMID 34821124, PMID 29488228; conditions: previous studies; cited from earlier work

SMILES: N[C@H]1C(O)O[C@H](CO)[C@@H](O)[C@@H]1O (some centres unmarked) [GCS, glucosamine]
- Remaining Activities (% of Control, n = 3) (CYP2D6 [1]; test substance 0.3 μM): 107.6 ± 7.4 % of Control
- Remaining Activities (% of Control, n = 3) (CYP2D6 [1]; test substance 1 μM): 104.9 ± 1.0 % of Control
- Remaining Activities (% of Control, n = 3) (CYP2D6 [1]; test substance 3 μM): 106.2 ± 3.7 % of Control
- Remaining Activities (% of Control, n = 3) (CYP2D6 [1]; test substance 10 μM): 101.6 ± 0.5 % of Control
- Remaining Activities (% of Control, n = 3) (CYP2D6 [1]; test substance 30 μM): 100.4 ± 1.4 % of Control
- Remaining Activities (% of Control, n = 3) (CYP2D6 [1]; test substance 100 μM): 102.6 ± 1.7 % of Control
- Remaining Activities (% of Control, n = 3) (CYP2D6 [1]; test substance 300 μM): 100.6 ± 1.3 % of Control
- Remaining Activities (% of Control, n = 3) (CYP2D6 [1]; test substance 1000 μM): 99.5 ± 4.8 % of Control
- adverse effects in clinical trials [2]: do not exhibit significant adverse effects
- Remaining Activities (% of Control, n = 3) (CYP2C19; test substance 0.3 μM): 128.4 ± 27.9 % of Control
- Remaining Activities (% of Control, n = 3) (CYP2C19; test substance 1 μM): 102.5 ± 3.0 % of Control
- Remaining Activities (% of Control, n = 3) (CYP2C19; test substance 3 μM): 102.6 ± 8.8 % of Control
- Remaining Activities (% of Control, n = 3) (CYP2C19; test substance 10 μM): 101.9 ± 4.3 % of Control
- Remaining Activities (% of Control, n = 3) (CYP2C19; test substance 30 μM): 90.5 ± 8.7 % of Control
- Remaining Activities (% of Control, n = 3) (CYP2C19; test substance 100 μM): 100.3 ± 3.7 % of Control
- Remaining Activities (% of Control, n = 3) (CYP2C19; test substance 300 μM): 95.5 ± 5.6 % of Control
- Remaining Activities (% of Control, n = 3) (CYP2C19; test substance 1000 μM): 88.7 ± 7.3 % of Control
- Remaining Activities (% of Control, n = 3) (CYP2A6; test substance 0.3 μM): 107.6 ± 5.2 % of Control
- Remaining Activities (% of Control, n = 3) (CYP2A6; test substance 1 μM): 105.3 ± 0.4 % of Control
- Remaining Activities (% of Control, n = 3) (CYP2A6; test substance 3 μM): 106.2 ± 2.3 % of Control
- Remaining Activities (% of Control, n = 3) (CYP2A6; test substance 10 μM): 101.5 ± 1.4 % of Control
- Remaining Activities (% of Control, n = 3) (CYP2A6; test substance 30 μM): 102.1 ± 2.5 % of Control
- Remaining Activities (% of Control, n = 3) (CYP2A6; test substance 100 μM): 103.4 ± 2.7 % of Control
- Remaining Activities (% of Control, n = 3) (CYP2A6; test substance 300 μM): 97.9 ± 0.4 % of Control
- Remaining Activities (% of Control, n = 3) (CYP2A6; test substance 1000 μM): 94.1 ± 7.3 % of Control
- Remaining Activities (% of Control, n = 3) (CYP2C9; test substance 0.3 μM): 115.5 ± 15.2 % of Control
- Remaining Activities (% of Control, n = 3) (CYP2C9; test substance 1 μM): 108.7 ± 1.7 % of Control
- Remaining Activities (% of Control, n = 3) (CYP2C9; test substance 3 μM): 109.2 ± 2.4 % of Control
- Remaining Activities (% of Control, n = 3) (CYP2C9; test substance 10 μM): 104.0 ± 2.3 % of Control
- Remaining Activities (% of Control, n = 3) (CYP2C9; test substance 30 μM): 105.8 ± 2.7 % of Control
- Remaining Activities (% of Control, n = 3) (CYP2C9; test substance 100 μM): 101.2 ± 4.8 % of Control
- Remaining Activities (% of Control, n = 3) (CYP2C9; test substance 300 μM): 97.2 ± 2.8 % of Control
- Remaining Activities (% of Control, n = 3) (CYP2C9; test substance 1000 μM): 91.1 ± 10.1 % of Control
- Remaining Activities (% of Control, n = 3) (CYP3A4(T); test substance 0.3 μM): 92.8 ± 0.6 % of Control
- Remaining Activities (% of Control, n = 3) (CYP3A4(T); test substance 1 μM): 92.4 ± 0.9 % of Control
- Remaining Activities (% of Control, n = 3) (CYP3A4(T); test substance 3 μM): 91.1 ± 3.1 % of Control
- Remaining Activities (% of Control, n = 3) (CYP3A4(T); test substance 10 μM): 91.7 ± 4.4 % of Control
- Remaining Activities (% of Control, n = 3) (CYP3A4(T); test substance 30 μM): 91.8 ± 3.0 % of Control
- Remaining Activities (% of Control, n = 3) (CYP3A4(T); test substance 100 μM): 84.8 ± 7.8 % of Control
- Remaining Activities (% of Control, n = 3) (CYP3A4(T); test substance 300 μM): 82.1 ± 3.4 % of Control
- Remaining Activities (% of Control, n = 3) (CYP3A4(T); test substance 1000 μM): 80.0 ± 6.6 % of Control
- cases of INR elevation when coumarin anticoagulants were combined with GCS ([3]; EFSA scientific opinion): 40 cases
- INR on co-administration with warfarin ([3]; interaction case, co-administration of CS and GCS with warfarin): elevated INR
- inhibitory effects on CYP2D6 (CYP2D6 [4]): no inhibitory effects
